The values that follow come from patent US20240109865A1, “INDAZOLE COMPOUNDS AS KINASE INHIBITORS” (TYRA BIOSCIENCES, INC., priority 2020, published 2024).

Test [1] has as its target FGFR3-BAIAP2L1 Ba/F3 cells (Homo sapiens, UniProt P22607). Kind of test: Ba/F3 cell viability assay (CellTiter-Glo 2.0), FGFR3-BAIAP2L1 Ba/F3. It is filed as cell-based. The note with it: for Ba/F3 FGFR1/FGFR3 Selectivity: FGFR3 > FGFR1 selectivity ratio in Ba/F3 FGFR fusion cell based assays; for IC50: read-out: Ba/F3 Cells FGFR3 (IC50 nM), FGFR3-BAIAP2L1 Ba/F3 cells, 48 hours, Cell Titer Glo 2.0. The method, boiled down:
(§1)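 IL3-independent Ba/F3 lines driven by FGFR1-BCR or FGFR3-BAIAP2L1 fusions, in RPMI1640/10% FBS. 9-dose 10-fold series from 30 μM, triplicate, 48 h at 37 °C; viability by CellTiter-Glo 2.0 ATP luminescence relative to DMSO control, IC50 from 4-parameter sigmoidal fit.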

For the next test, the target named is FGFR1-BCR Ba/F3 cells (Homo sapiens, UniProt P11362). Kind of test: Ba/F3 cell viability assay (CellTiter-Glo 2.0), FGFR1-BCR Ba/F3. It is filed as cell-based. The note with it: read-out: Ba/F3 Cells FGFR1 (IC50 nM), 48 hours, Cell Titer Glo 2.0. The method, boiled down: as §1
On the technique in general: ATP-based viability assays read luminescence as a measure of living cells.

The subject of test [2] is KG-1 cells (FGFR1-fusion). Kind of test: KG-1 cancer cell line cell viability assay (CellTiter-Glo 2.0). The test is classed as cell-based. The note with it: Homo sapiens, 72 hours, Cell Titer Glo 2.0. In a few lines: (§2)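 RT112/84, UM-UC-14 and KG-1 cells (10,000/well, RPMI1640 with 10% FBS) were treated with a 9-dose, 10-fold series starting at 30 μM, in triplicate, for 72 h at 37 °C. ATP was read by CellTiter-Glo 2.0 luminescence relative to DMSO controls, and IC50 was fitted with a 4-parameter sigmoidal model.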

The subject of test [3] is UM-UC-14 cells (FGFR3(S249C)). Kind of test: UM-UC-14 cancer cell line cell viability assay (CellTiter-Glo 2.0). As to conditions: UMUC14, 72 hours, Cell Titer Glo 2.0. The test is classed as cell-based. The method, boiled down: as §2
Test [4] concerns RT112/84 cells (FGFR3-fusion). Kind of test: RT112/84 cancer cell line cell viability assay (CellTiter-Glo 2.0). The test is classed as cell-based. As to conditions: Homo sapiens, 72 hours, Cell Titer Glo 2.0. The method, boiled down: as §2
The next test addresses FGFR1 (Homo sapiens (Human), UniProt P11362). As to the kind of experiment: Kinase assay, binding constants (Kd), kinase-tagged T7 phage, qPCR. In a few lines: (§3)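 Competition binding: T7 phage-tagged kinase + biotin-ligand beads + compound (11 pts, 3-fold, 0.9% DMSO). Elution 30 min RT with free ligand; qPCR quantitation. Kd via Hill fit, slope −1.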
(In general: Quantitative PCR measures a nucleic acid by following its amplification.)

For another test, the target named is FGFR4 (Homo sapiens (Human), UniProt P22455). The description is as above. The method, boiled down:
as §3

The target of a further test is FGFR3 (Homo sapiens (Human), UniProt P22607). Described as above. In a few lines: as §3
Another test deals with FGFR2 (Homo sapiens (Human), UniProt P21802). The test is described as above. The method, boiled down: as §3
The next test addresses FGFR3 (V555M) (Homo sapiens (Human), UniProt P22607, V555M). The description is as above. As to conditions: V555M mutant. The method, boiled down: as §3

FGFR3, sequence (P22607 23-806): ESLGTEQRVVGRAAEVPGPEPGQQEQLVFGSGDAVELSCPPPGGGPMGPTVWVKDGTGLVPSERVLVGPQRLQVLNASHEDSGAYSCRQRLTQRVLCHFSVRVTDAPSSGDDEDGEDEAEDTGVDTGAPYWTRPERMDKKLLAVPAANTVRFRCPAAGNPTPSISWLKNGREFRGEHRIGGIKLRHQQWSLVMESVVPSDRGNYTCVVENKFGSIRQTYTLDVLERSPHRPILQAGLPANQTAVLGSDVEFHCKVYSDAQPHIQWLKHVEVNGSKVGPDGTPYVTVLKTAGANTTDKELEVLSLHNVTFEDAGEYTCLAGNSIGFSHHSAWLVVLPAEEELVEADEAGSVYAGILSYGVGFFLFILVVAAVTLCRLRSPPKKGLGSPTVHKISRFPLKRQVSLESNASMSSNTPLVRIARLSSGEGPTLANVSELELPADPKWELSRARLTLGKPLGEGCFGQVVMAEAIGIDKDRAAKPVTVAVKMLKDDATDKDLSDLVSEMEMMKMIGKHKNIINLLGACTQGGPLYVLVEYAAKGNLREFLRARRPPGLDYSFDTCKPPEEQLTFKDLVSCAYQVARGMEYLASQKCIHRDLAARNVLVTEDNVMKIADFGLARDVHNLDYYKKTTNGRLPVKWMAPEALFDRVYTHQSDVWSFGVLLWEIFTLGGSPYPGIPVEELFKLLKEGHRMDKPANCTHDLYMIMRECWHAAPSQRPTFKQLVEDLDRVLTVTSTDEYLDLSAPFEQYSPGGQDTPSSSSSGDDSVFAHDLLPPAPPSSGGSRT
FGFR3-BAIAP2L1 Ba/F3 cells, sequence (P22607 23-806 limits assumed, change not shown): as the sequence (P22607 23-806) above
FGFR3 (V555M), sequence (P22607 23-806 V555M): as the sequence (P22607 23-806) above, with V533M counted along it
FGFR4, sequence (P22455 22-802): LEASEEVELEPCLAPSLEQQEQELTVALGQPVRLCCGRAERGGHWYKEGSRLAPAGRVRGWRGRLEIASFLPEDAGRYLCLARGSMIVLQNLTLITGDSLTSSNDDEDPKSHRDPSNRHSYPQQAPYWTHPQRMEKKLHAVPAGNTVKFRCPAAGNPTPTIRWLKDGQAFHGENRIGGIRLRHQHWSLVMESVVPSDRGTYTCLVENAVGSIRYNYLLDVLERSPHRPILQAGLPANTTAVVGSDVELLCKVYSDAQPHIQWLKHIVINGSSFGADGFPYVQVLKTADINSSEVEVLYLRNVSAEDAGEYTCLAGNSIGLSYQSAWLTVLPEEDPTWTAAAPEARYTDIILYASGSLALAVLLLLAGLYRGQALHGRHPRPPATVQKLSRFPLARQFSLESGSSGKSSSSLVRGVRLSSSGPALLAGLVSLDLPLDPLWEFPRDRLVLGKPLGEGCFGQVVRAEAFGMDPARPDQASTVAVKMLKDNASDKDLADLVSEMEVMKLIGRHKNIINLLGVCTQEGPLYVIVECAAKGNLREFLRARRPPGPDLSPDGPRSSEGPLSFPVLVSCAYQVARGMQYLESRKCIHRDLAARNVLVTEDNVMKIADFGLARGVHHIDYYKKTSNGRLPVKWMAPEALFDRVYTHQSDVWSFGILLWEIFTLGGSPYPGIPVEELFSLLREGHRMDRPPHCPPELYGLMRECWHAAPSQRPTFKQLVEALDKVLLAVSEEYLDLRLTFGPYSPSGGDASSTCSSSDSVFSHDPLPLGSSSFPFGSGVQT
FGFR1-BCR Ba/F3 cells, sequence (P11362 22-822 limits assumed, change not shown): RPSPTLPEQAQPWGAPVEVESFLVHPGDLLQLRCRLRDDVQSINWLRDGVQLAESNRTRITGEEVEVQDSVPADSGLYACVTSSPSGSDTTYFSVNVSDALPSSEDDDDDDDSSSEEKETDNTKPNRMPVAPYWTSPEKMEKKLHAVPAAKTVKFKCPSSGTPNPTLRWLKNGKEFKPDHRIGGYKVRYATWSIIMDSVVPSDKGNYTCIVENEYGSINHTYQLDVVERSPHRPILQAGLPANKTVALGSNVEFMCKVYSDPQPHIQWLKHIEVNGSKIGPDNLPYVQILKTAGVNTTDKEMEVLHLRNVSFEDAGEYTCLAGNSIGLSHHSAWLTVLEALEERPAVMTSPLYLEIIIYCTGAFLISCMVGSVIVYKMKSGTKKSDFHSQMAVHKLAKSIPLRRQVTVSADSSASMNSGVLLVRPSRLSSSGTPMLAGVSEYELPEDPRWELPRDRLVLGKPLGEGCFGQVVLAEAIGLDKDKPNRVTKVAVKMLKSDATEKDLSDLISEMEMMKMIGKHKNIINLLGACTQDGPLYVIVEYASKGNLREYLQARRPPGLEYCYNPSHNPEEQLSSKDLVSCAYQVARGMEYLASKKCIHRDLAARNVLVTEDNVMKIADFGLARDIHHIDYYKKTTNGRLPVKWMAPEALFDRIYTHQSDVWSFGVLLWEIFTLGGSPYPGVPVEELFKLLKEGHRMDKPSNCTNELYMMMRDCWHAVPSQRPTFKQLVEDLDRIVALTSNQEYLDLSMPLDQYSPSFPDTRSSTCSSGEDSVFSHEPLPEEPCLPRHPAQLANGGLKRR
FGFR1, sequence (P11362 22-822): as the sequence (P11362 22-822 limits assumed, change not shown) above
FGFR2, sequence (P21802 22-821): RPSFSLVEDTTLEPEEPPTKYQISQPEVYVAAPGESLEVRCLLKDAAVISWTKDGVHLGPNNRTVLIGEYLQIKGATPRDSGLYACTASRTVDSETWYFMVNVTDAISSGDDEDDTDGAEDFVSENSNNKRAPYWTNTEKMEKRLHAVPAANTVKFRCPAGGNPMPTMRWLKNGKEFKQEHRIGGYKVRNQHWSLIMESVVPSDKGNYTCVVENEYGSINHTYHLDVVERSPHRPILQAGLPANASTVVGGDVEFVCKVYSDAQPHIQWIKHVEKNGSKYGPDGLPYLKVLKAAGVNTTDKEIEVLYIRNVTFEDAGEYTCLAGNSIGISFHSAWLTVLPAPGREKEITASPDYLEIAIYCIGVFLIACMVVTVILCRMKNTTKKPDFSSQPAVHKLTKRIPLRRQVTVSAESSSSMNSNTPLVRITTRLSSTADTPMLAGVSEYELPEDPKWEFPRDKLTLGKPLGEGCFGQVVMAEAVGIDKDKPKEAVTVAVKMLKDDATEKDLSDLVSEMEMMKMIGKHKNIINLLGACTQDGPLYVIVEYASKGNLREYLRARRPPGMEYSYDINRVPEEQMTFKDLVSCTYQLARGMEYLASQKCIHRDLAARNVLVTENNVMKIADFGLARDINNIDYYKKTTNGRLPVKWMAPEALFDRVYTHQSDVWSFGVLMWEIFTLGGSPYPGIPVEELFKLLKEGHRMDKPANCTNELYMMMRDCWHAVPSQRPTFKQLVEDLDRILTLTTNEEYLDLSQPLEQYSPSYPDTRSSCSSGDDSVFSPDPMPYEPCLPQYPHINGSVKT

For the molecule `C[C@@H](Oc1ccc2[nH]nc(-c3cnc(N4CCC5(CCN(C)C5=O)CC4)nc3)c2c1)c1c(Cl)cncc1Cl` [Example 51, 8-[5-[5-[(1R)-1-(3,5-dichloro-4-pyridyl)ethoxy]-1H-indazol-3-yl]pyrimidin-2-yl]-2-methyl-2,8-diazaspiro[4.5]decan-1-one], in [1], the “Ba/F3 FGFR1/FGFR3 Selectivity” value amounted to 7. The IC50 in [1] fell in the range of 20 to 100 nM; on FGFR1-BCR Ba/F3 cells, 100 to 300 nM; in [2], 100 to 300 nM; in test [3], 20 to 100 nM; in test [4], 20 to 100 nM. For the same molecule, the Kd (as a rule, the constant that tells how readily two partners part at equilibrium) was 20 to 100 nM at FGFR1; 1 to 20 nM on FGFR4; 1 to 20 nM on FGFR3; 20 to 100 nM at FGFR2; 1 to 20 nM on FGFR3 (V555M).
As to `C[C@@H](Oc1ccc2[nH]nc(-c3cnc(N4CCC5(CCCN5C)CC4)nc3)c2c1)c1c(Cl)cncc1Cl` [Example 52, 8-[5-[5-[(1R)-1-(3,5-dichloro-4-pyridyl)ethoxy]-1H-indazol-3-yl]pyrimidin-2-yl]-1-methyl-1,8-diazaspiro[4.5]decane], in [1], the “Ba/F3 FGFR1/FGFR3 Selectivity” value turned out to be 7. In addition, the IC50 in [1] was in the range of 20 to 100 nM; at FGFR1-BCR Ba/F3 cells, 100 to 300 nM; in test [2], 20 to 100 nM; in [3] it was 20 to 100 nM; in test [4], 20 to 100 nM. In addition, the Kd at FGFR1 fell in the range of 1 to 20 nM; at FGFR4 it was 1 to 20 nM; at FGFR3, 1 to 20 nM; at FGFR2, 20 to 100 nM; on FGFR3 (V555M), 1 to 20 nM.
With `C[C@@H](Oc1ccc2[nH]nc(-c3cnc(N4CCC5(CCC(=O)N5C)CC4)nc3)c2c1)c1c(Cl)cncc1Cl` [Example 54, 8-[5-[5-[(1R)-1-(3,5-dichloro-4-pyridyl)ethoxy]-1H-indazol-3-yl]pyrimidin-2-yl]-1-methyl-1,8-diazaspiro[4.5]decan-2-one], the “Ba/F3 FGFR1/FGFR3 Selectivity” value in [1] is 13. For the same molecule, the IC50 in test [1] was 1 to 20 nM; at FGFR1-BCR Ba/F3 cells it was 100 to 300 nM; in test [2], 100 to 300 nM; in [3], 1 to 20 nM; in test [4], 1 to 20 nM. For the same molecule, the Kd at FGFR1, at FGFR4, at FGFR3, at FGFR2 and on FGFR3 (V555M) was 1 to 20 nM throughout.
In the case of `C[C@@H](Oc1ccc2[nH]nc(-c3cnc(N4CCCN(C5COC5)CC4)nc3)c2c1)c1c(Cl)cncc1Cl` [Example 60, 5-[(1R)-1-(3,5-Dichloro-4-pyridyl)ethoxy]-3-[2-[4-(oxetan-3-yl)-1,4-diazepan-1-yl]pyrimidin-5-yl]-1H-indazole], in [1], the “Ba/F3 FGFR1/FGFR3 Selectivity” value was determined as 13. For the same molecule, the IC50 in [1] fell in the range of 1 to 20 nM; at FGFR1-BCR Ba/F3 cells it was 100 to 300 nM; in test [2] it was 100 to 300 nM; in test [3] it was 20 to 100 nM; in [4], 20 to 100 nM. Besides, the Kd at FGFR1, on FGFR4, at FGFR3, at FGFR2 and at FGFR3 (V555M) was 1 to 20 nM throughout.
Consider `Cc1cncc(C)c1[C@@H](C)Oc1ccc2[nH]nc(-c3ccc(N4CC5(C4)CN(S(C)(=O)=O)C5)nc3)c2c1` [Example 139, 5-[(1R)-1-(3,5-dimethyl-4-pyridyl)ethoxy]-3-[6-(2-methylsulfonyl-2,6-diazaspiro[3.3]heptan-6-yl)-3-pyridyl]-1H-indazole], for which the “Ba/F3 FGFR1/FGFR3 Selectivity” value in [1] is on record as 14. In addition, the IC50 fell in the range of 20 to 100 nM in [1]; 100 to 300 nM on FGFR1-BCR Ba/F3 cells; 100 to 300 nM in test [2]; 1 to 20 nM in [3]; 1 to 20 nM in test [4]. The Kd lay in the range of 20 to 100 nM on FGFR1; 1 to 20 nM on FGFR4; 1 to 20 nM on FGFR3; 1 to 20 nM on FGFR2; 1 to 20 nM at FGFR3 (V555M).
With `CCOC(=O)N1CC2(C1)CN(c1ccc(-c3n[nH]c4ccc(O[C@H](C)c5c(C)cnnc5C)cc34)cn1)C2` [Example 142, ethyl 6-[5-[5-[(1R)-1-(3,5-dimethylpyridazin-4-yl)ethoxy]-1H-indazol-3-yl]-2-pyridyl]-2,6-diazaspiro[3.3]heptane-2-carboxylate], the “Ba/F3 FGFR1/FGFR3 Selectivity” value in test [1] was determined as 25. Further, the IC50 was 1 to 20 nM in test [1]; 100 to 300 nM on FGFR1-BCR Ba/F3 cells; 100 to 300 nM in test [2]; 1 to 20 nM in [3]; 20 to 100 nM in test [4]. The Kd on FGFR1 was 20 to 100 nM; on FGFR4, 1 to 20 nM; at FGFR3, 1 to 20 nM; on FGFR2, 1 to 20 nM; at FGFR3 (V555M), 1 to 20 nM.
With `C[C@@H](Oc1ccc2[nH]nc(-c3ccc(N4CC5(CCCS(=O)(=O)C5)C4)nc3)c2c1)c1c(Cl)cncc1Cl` [Example 159, 2-[5-[5-[(1R)-1-(3,5-dichloro-4-pyridyl)ethoxy]-1H-indazol-3-yl]-2-pyridyl]-6λ^6-thia-2-azaspiro[3.5]nonane 6,6-dioxide], the “Ba/F3 FGFR1/FGFR3 Selectivity” value in [1] is listed as 16. The IC50 in test [1] is 1 to 20 nM; at FGFR1-BCR Ba/F3 cells, 20 to 100 nM; in test [2], 1 to 20 nM; in test [3] it was 20 to 100 nM; in test [4], 1 to 20 nM. Besides, the Kd on FGFR1, on FGFR4, at FGFR3, at FGFR2 and on FGFR3 (V555M) was 1 to 20 nM each time.
